According to patent US20030194378A1, “Novel aerosol formulation containing a polar fluorinated molecule” (priority 2000, published 2003):
Where a name gives a salt, the structure may show the parent alone. Read-outs that look alike come from different tables or passages of the source.

Experiments:
[1] = Miscibility or solubility of fluorinated molecules in propellants; conditions: for Concentration (C, in brackets) at which the miscibility or solubility test was done, HFA-134a / Concentration (C, in brackets) at which the miscibility or solubility test was done, HFA-227: solutions below this are monophasic, not an upper limit; for Miscibility or solubility, HFA-134a: in propellant HFA-134a, at the concentration in brackets; for Miscibility or solubility, HFA-227: in propellant HFA-227, at the concentration in brackets
[2] = Solubility of drug compounds in 4HPFOH (optical, UV-Vis); type: physicochemical
Procedure: Although most drug compounds are insoluble in the fluorinated systems, in some instances it is possible to solubilise the drug.
Drug suspensions were prepared in sealed glass vials by weight. The suspensions were then allowed to rest over a couple of day to reach equilibrium. They were firstly assessed optically, and in the case of a possible solubility by UV-vis spectroscopy. The solutions were then filtered with 0.2 μm PTFE filters and studied by UV-Vis spectroscopy between 280 nm and 350 nm. A range of suspensions were prepared, to be able to reach saturation levels. Calibration curves were then drawn by plotting the absorbance as a function of concentration. The inflexion point at which the slope of the calibration plot changed was taken as the solubility limit. The experiment was carried out at least 3 times for each drug.

[3] = Solubility of selected excipients in 4HPFOH; conditions: for Concentration % w/w (at which solubility in 4HPFOH was assessed): excipient in 4HPFOH; for Solubility or miscibility in 4HPFOH: excipient in 4HPFOH at the concentration of the same line, sonicated, heated, cooled
Procedure: The second test carried out was to evaluate the solubility (or miscibility in the case of liquid samples) of some excipients in 4HPFOH.
The excipients were weighed in glass vials with a screw-on plastic cap. 4HPFOH was added at the required concentration, and the vial sealed with Teflon tape and the screw-on cap. The sample was sonicated and heated to quicken the solubilisation of the excipient. The vial was then allowed to cool down.

| SMILES | Concentration (C, in brackets) at which the miscibility or solubility test was done, HFA-134a [1] | Concentration (C, in brackets) at which the miscibility or solubility test was done, HFA-227 [1] | Miscibility or solubility, HFA-134a [1] | Miscibility or solubility, HFA-227 [1] | other results |
| --- | --- | --- | --- | --- | --- |
| OCCC(F)(F)C(F)(F)C(F)(F)C(F)(F)C(F)(F)C(F)(F)F [1H,1H,2H,2H Perfluorooctan-1-ol] | (C <7.30% w/w) | < 5.17 % w/w | Yes | Yes |  |
| OCC(O)CC(F)(F)C(F)(F)C(F)(F)C(F)(F)C(F)(F)C(F)(F)F (centres unmarked) [1H,1H,2H,3H,3H Perfluoro-1,2-nonandiol] | (C <4.84% w/w) | < 3.71 % w/w | Yes | Yes |  |
| OCC(F)(F)C(F)(F)C(F)(F)C(F)(F)C(F)(F)C(F)(F)C(F)(F)C(F)(F)F [1H,1H, Perfluorononan-1-ol] | (C <4.55% w/w) | < 4.15 % w/w | Yes | Yes |  |
| FC(OC(F)(F)C(F)(OC(F)(F)C(F)(OC(F)(F)C(F)(OC(F)(F)C(F)(F)C(F)(F)F)C(F)(F)F)C(F)(F)F)C(F)(F)F)C(F)(F)F (centres unmarked) [2H Perfluoro-5,8,11-trimethyl-3,6,9,12-tetrafluoropropylether] | (C <43.49% w/w) | (C <35.36% w/w) | Yes | Yes |  |
| Cc1ccc(CCOCCNS(=O)(=O)CCCNCCc2ccc(O)c3nc(O)sc23)cc1 [3-[2-(4-hydroxy-2-oxo-3H-1,3-benzothiazol-7-yl)ethylamino]-N-[2-[2-(4-methylphenyl)ethoxy)ethyl]propansulphonamide] |  |  |  |  | Solubility in 4HPFOH [2]: less than 0.1 ppm(w/w); Solubility in 4HPFOH (in words) [2]: insoluble |
| CCCC1O[C@@H]2C[C@H]3[C@@H]4CCC5=CC(=O)C=C[C@]5(C)[C@H]4[C@@H](O)C[C@]3(C)[C@]2(C(=O)CO)O1 (some centres unmarked) [Budesonide] |  |  |  |  | Solubility in 4HPFOH (in words) [2]: soluble; Solubility limit in 4HPFOH [2]: 0.219-0.246 % w/w |
| C[C@H](CCC(=O)O)[C@H]1CC[C@H]2[C@@H]3CC[C@@H]4C[C@H](O)CC[C@]4(C)[C@H]3C[C@H](O)[C@]12C [Deoxycholic acid] |  |  |  |  | Concentration % w/w (at which solubility in 4HPFOH was assessed) [3]: 0.90 % w/w; Solubility or miscibility in 4HPFOH [3]: Yes |
| CCCCC(CC)COC(=O)CC(C(=O)OCC(CC)CCCC)S(=O)(=O)[O-].[Na+] (centres unmarked) [Dioctyl-sulfosuccinate sodium salt] |  |  |  |  | Concentration % w/w (at which solubility in 4HPFOH was assessed) [3]: 0.096 % w/w; Solubility or miscibility in 4HPFOH [3]: Yes |
| CCCCCCCCCCCC[N+](C)(C)C.[Br-] [Dodecyltrimethyl Ammonium Bromide] |  |  |  |  | Concentration % w/w (at which solubility in 4HPFOH was assessed) [3]: 1.00 % w/w; Solubility or miscibility in 4HPFOH [3]: Yes |
| CCOC(=O)C(F)(F)C(F)(F)C(F)(F)C(F)(F)C(F)(F)C(F)(F)C(F)(F)C(F)(F)C(F)(F)C(F)(F)C(F)(F)F [Ethyl Perfluoro n-Dodecanoate] | (C <9.24% w/w) | (C <41.15% w/w) | Yes | Yes |  |
| COc1ccc(CC(C)NCC(O)c2ccc(O)c(NC=O)c2)cc1 (centres unmarked) [Formoterol Fumarate Dihydrate] |  |  |  |  | Solubility in 4HPFOH (in words) ([2]; in 4HPFOH, equilibrated a couple of days): insoluble |
| COC(=O)C(F)(F)C(F)(F)C(F)(F)C(F)(F)C(F)(F)C(F)(F)C(F)(F)C(F)(F)C(F)(F)F [Methyl Perfluorodecanoate] | (C <42.63% w/w) | (C <39.40% w/w) | Yes | Yes |  |
| CCCCCCCCO[C@@H]1O[C@H](CO)[C@@H](O)[C@H](O)[C@H]1O [N Octyl beta D Glucopyranoside] |  |  |  |  | Concentration % w/w (at which solubility in 4HPFOH was assessed) [3]: 0.11 % w/w; Solubility or miscibility in 4HPFOH [3]: Yes |
| CCCCCCCCC[N+](C)(C)C.[Br-] [Nonyltrimethyl Ammonium Bromide] |  |  |  |  | Concentration % w/w (at which solubility in 4HPFOH was assessed) [3]: 0.96 % w/w; Solubility or miscibility in 4HPFOH [3]: Yes |
| O=C(OC(=O)C(F)(F)C(F)(F)C(F)(F)C(F)(F)C(F)(F)C(F)(F)F)C(F)(F)C(F)(F)C(F)(F)C(F)(F)C(F)(F)C(F)(F)F [Perfluoroheptanoic anhydride] | (C <9.89% w/w) | < 9.13 % w/w | Yes | Yes |  |
| CC(C)(C)NCC(O)c1cc(O)cc(O)c1 (centres unmarked) [Terbutaline Sulphate] |  |  |  |  | Solubility in 4HPFOH [2]: less than 0.1 ppm(w/w); Solubility in 4HPFOH (in words) [2]: insoluble |

Second part, led by results:

| Concentration (C, in brackets) at which the miscibility or solubility test was done, HFA-134a [1] | Concentration (C, in brackets) at which the miscibility or solubility test was done, HFA-227 [1] | Miscibility or solubility, HFA-134a [1] | Miscibility or solubility, HFA-227 [1] | SMILES | other results |
| --- | --- | --- | --- | --- | --- |
| (C <4.93% w/w) | < 4.43 % w/w | Yes | Yes | CCOC(=O)C(F)(F)C(F)(F)C(F)(F)C(F)(F)C(F)(F)C(F)(F)C(F)(F)C(F)(F)C(F)(F)C(F)F [Ethyl 11H-Perfluoroundecanoate] |  |
| (C <10.37% w/w) | < 8.90 % w/w | Yes | Yes | COC(=O)C(F)(OC(F)(F)C(F)(OC(F)(F)C(F)(OC(F)(F)C(F)(OC(F)(F)C(F)(F)C(F)(F)F)C(F)(F)F)C(F)(F)F)C(F)(F)F)C(F)(F)F (centres unmarked) [Methyl perfluoro 2,5,9,11-Tetramethyl 3,6,9,12 Tetraoxapentadecanoate] |  |
